# Test results as given in patent publication US20080249043A1, “Methods and Compositions Involving Protein Kinase C-Delta” (priority 2004, published 2008).
# System: HeLa cells
# Test: Apoptosis by PI staining and flow cytometry (subG1 population) in HeLa cells
# Format: cell-based
# Description: Cell culture, transfection and treatment—HeLa cells were cultured in Dulbecco's modified Eagle's medium (DMEM) containing 10% fetal bovine serum, 2 mM L-glutamine and penicillin (100 units/ml)-streptomycin (100 μg/ml) at 37° C. in a humidified 5% CO2 atmosphere. HeLa cells at 90% confluence were transfected with different mammalian expression vectors using Lipofectamin 2000 according to the manufacturer's protocol (Invitrogen Inc., Carlsbad, Calif.). At 24 h or 48 h after transfection, cells were treated with 1:100 dilution of AD198 that was dissolved in dimethyl sulfoxide (DMSO). For down-regulation of PLS3, HeLa cells at 50% confluence were transfected with siRNA against PLS3 or a scrambled control. At 48 h, cells were treated with AD198 for 16 h and harvested for flow cytometry. The whole cell lysate was extracted for analysis with Western blotting.
# Analysis of apoptosis and determination of the transmembrane potential in mitochondria—Cell death was quantified by propidium iodide (PI) staining, followed by flow cytometry (Becton-Dickinson). HeLa cells were fixed in 0.5 ml cold 70% ethanol at −20° C. overnight. Cell pellet were resuspended in 300 μl of PBS containing 0.025 mg/ml PI, 0.05% Triton X-100, 0.1 mg/ml RNase A and incubated at room temperature for 30 min. The DNA content was evaluated by FACScan. For mitochondrial potential analysis, HeLa cells were incubated with MitoTracker Green at 37° C. for 20 min. The cells were collected and washed with PBS and analyzed by FACScan.
# Cell culture, transfection, selection and treatment—HeLa cells were cultured in Dulbecco's modified Eagle's medium (DMEM) with 10% fetal bovine serum, 2 mM L-glutamine, 100 units/ml penicillin and 100 μg/ml streptomycin at 37° C. HeLa cells at 90% confluence were transfected with different mammalian expression vectors or siRNA using Lipofectamin 2000 according to the manufacturer's protocol (Invitrogen Inc., Carlsbad, Calif.). At 48 h after transfection, cells were incubated with 5 μM AD198 or dimethyl sulfoxide (DMSO) for 4 h or 16 h. After transfection, cells were selected with 1 mg/ml G418 for 2 wk. After corresponding mock-transfected cells were killed by G418, the concentration of G418 was decreased to 0.5 mg/ml and maintained for another 2 wk. The whole cell lysates or subcellular fractions were extracted for Western blotting analysis (Liu et al. (2003)).
# Analysis of apoptosis—HeLa cells were harvested and fixed in 70% ethanol at −20° C. overnight. Cells were then washed with PBS and stained with 0.025 mg/ml propidium iodide (PI), 0.05% Triton X-100, 0.1 mg/ml RNase A for 30 min at room temperature. The DNA content was analyzed by FACScan (Becton-Dickinson), and the subG0/G1 population was used to represent apoptosis.
compound,measurement,setting,value
"CCCCC(=O)OCC(=O)[C@]1(O)Cc2c(O)c3c(c(O)c2[C@@H](O[C@H]2C[C@H](NCc4ccccc4)[C@H](O)[C@H](C)O2)C1)C(=O)c1c(OC)cccc1C3=O [AD198, N-benzyladriamycin-14-valerate]",AD198-induced apoptosis,"HeLa cells expressing PLS3(T21A), 5 μM AD198, 16 h (FIG. 9)",same degree of apoptosis as the control cells
same,percentage of AD198-induced apoptosis,"HeLa cells expressing wild-type PLS3, 5 μM AD198, 16 h (FIG. 9)",31%
same,apoptosis after AD198 treatment,"HeLa cells expressing wild-type PLS3, 5 μM AD198, 16 h (FIG. 11), DMSO 9%",43%
same,apoptosis after AD198 treatment,"HeLa cells transfected with PLS3(T21D), 5 μM AD198, 16 h (FIG. 11), DMSO 17%",27%
same,AD198-induced apoptosis when PKC-δ down regulated by siRNA,"HeLa cells, AD198 1, 5 and 10 μM, 16 h",less apoptosis was detected
same,sensitivity to AD198-induced apoptosis of cells with overexpression of PLS3,"HeLa cells, three concentrations of AD198, 16 h, versus without PLS3 overexpression",more sensitive
same,AD198-induced apoptosis in cells transfected with siRNA against PLS3,"HeLa cells, versus scrambled siRNA control, 16 h",suppressed
same,apoptosis after AD198 treatment,"HeLa-control cells, 5 μM AD198, 16 h (FIG. 11), DMSO 6%",22%
same,percentage of AD198-induced apoptosis,"control HeLa cells, 5 μM AD198, 16 h (FIG. 9)",7%
